Converted amounts (≈) assume the structure as drawn. Non-standard residues stand in square brackets, D forms with d. Residues, ends and D or L forms follow the SMILES beside them. *: point of attachment. Octanoyl(7-Me) = CC(C)CCCCCC(=O)*; dOrn = NCCC[C@@H](N)C(=O)O; Orn = NCCC[C@H](N)C(=O)O

The test relates to Escherichia coli ATCC 25922. In kind it is cell-based. As to conditions: ATCC 25922. On the procedure: Minimum inhibitory concentration (MIC) was determined by broth microdilution according to CLSI guidelines. Blood agar plates were inoculated with glycerol stocks of Escherichia coli ATCC 25922, E. coli ATCC 25922 MCR-1, E. coli MCR-1 (clinical isolate from Utrecht Medical Center, NL), E. coli EQAS MCR-2 (clinical isolate from Wageningen University and Research, NL), Kiebsielia pneumoniae ATCC 11228, K. pneumoniae ATCC 13883, K. pneumonia 2048 (clinical isolate from Vrije Universiteit Amsterdam Medical Center, NL), K. pneumonia JS-123 (clinical isolate from Utrecht Medical Center, NL), Acinetobacter baumannii ATCC 17961, A. baumannil ATCC 17978, A. baumannii 2018-006 (clinical isolate from Rijksinstituut voor Volksgezondheid en Milieu, NL), A. baumannii MDR (clinical isolate from Vrije Universiteit Amsterdam Medical Center, NL), Pseudomonas aeruginosa ATCC 27853, P. aeruginosa PAO1, P. aeruginosa NRZ-03961 (Reference strain from Das Nationale Referenzzentrum für gramnegative Krankenhauserreger, DE), P. aeruginosa M-120 (clinical isolate from Leiden University Medical Center, NL) and Staphylococcus aureus USA300 (clinical isolate from Texas Children's Hospitalm, USA). E. coli 25922 MCR1 was grown on LB agar supplemented with kanamycin. The inoculated agar plates were then incubated for 16 hours at 37° C. Individually grown colonies were subsequently used to inoculate 3 mL aliquots of TSB that were then incubated at 37° C. with shaking at 220 rpm. In parallel, the compounds to be assessed were serially diluted with Mueller-Hinton broth (MHB) in polypropylene 96-well plates (50 μL in each well). Once the OD600 of the bacterial suspensions reached 0.5, the bacteria were diluted with MHB (final concentration 2×10^5 CFU mL^−1) and added to the microplates containing the test compounds (50 μL to each well, final volume: 100 μL). The well-plates were sealed with an adhesive membrane and after 16 hours of incubation at 37° C. with shaking at 220 rpm the wells were visually inspected for bacterial growth. MIC values were defined as the lowest concentration of the compound that prevented visible growth of bacteria.
As for `C[C@@H](N=[N+]=[N-])[C@H](N)C(=O)O` [(2S,3R)-2-amino-3-azidobutanoic acid], the “Minimum inhibitory concentration (MIC)” value was 2 to 4 µg/mL.

For `CC[C@H](C)[C@H](NC(=O)[C@@H](NC(=O)[C@H](Cc1c[nH]c2ccccc12)NC(=O)[C@@H](CCCN)NC(=O)CNC(=O)[C@H](CCCN)NC(=O)[C@@H](CCCN)NC(=O)[C@@H](Cc1c[nH]c2ccccc12)NC(=O)[C@@H](Cc1ccc(O)cc1)NC(=O)[C@@H](C)NC(=O)CCCCCC(C)C)[C@@H](C)O)C(=O)N[C@@H](CC(N)=O)C(=O)NCC(=O)NCC(N)=O` [Ala1 (D-Ser→D-Ala), FA-aywoOGoWTINGG-CONH2] ({Octanoyl(7-Me)}-[dA][dY][dW][dOrn][Orn]G[dOrn]WTINGG-NH2), the “Minimum inhibitory concentration (MIC)” value was in the range of 4 to 8 µg/mL.

Take `CC[C@H](C)[C@H](NC(=O)[C@@H](NC(=O)[C@H](Cc1c[nH]c2ccccc12)NC(=O)[C@@H](CCCN)NC(=O)CNC(=O)[C@H](CCCN)NC(=O)[C@@H](CCCN)NC(=O)[C@@H](Cc1c[nH]c2ccccc12)NC(=O)[C@@H](C)NC(=O)[C@@H](CO)NC(=O)CCCCCC(C)C)[C@@H](C)O)C(=O)N[C@@H](CC(N)=O)C(=O)NCC(=O)NCC(N)=O` [Ala2 (D-Tyr→D-Ala), FA-sawoOGoWTINGG-CONH2] ({Octanoyl(7-Me)}-[dS][dA][dW][dOrn][Orn]G[dOrn]WTINGG-NH2): the “Minimum inhibitory concentration (MIC)” value fell in the range of 8 to 16 µg/mL.

For `CC[C@H](C)[C@H](NC(=O)[C@@H](NC(=O)[C@H](Cc1c[nH]c2ccccc12)NC(=O)[C@@H](CCCN)NC(=O)CNC(=O)[C@H](CCCN)NC(=O)[C@@H](CCCN)NC(=O)[C@@H](C)NC(=O)[C@@H](Cc1ccc(O)cc1)NC(=O)[C@@H](CO)NC(=O)CCCCCC(C)C)[C@@H](C)O)C(=O)N[C@@H](CC(N)=O)C(=O)NCC(=O)NCC(N)=O` [Ala3 (D-Trp→D-Ala), FA-syaoOGoWTINGG-CONH2] ({Octanoyl(7-Me)}-[dS][dY][dA][dOrn][Orn]G[dOrn]WTINGG-NH2), the “Minimum inhibitory concentration (MIC)” value is 16 µg/mL (≈ 10.6 µM).

Turning to `CC[C@H](C)[C@H](NC(=O)[C@@H](NC(=O)[C@H](Cc1c[nH]c2ccccc12)NC(=O)[C@@H](CCCN)NC(=O)CNC(=O)[C@H](CCCN)NC(=O)[C@@H](C)NC(=O)[C@@H](Cc1c[nH]c2ccccc12)NC(=O)[C@@H](Cc1ccc(O)cc1)NC(=O)[C@@H](CO)NC(=O)CCCCCC(C)C)[C@@H](C)O)C(=O)N[C@@H](CC(N)=O)C(=O)NCC(=O)NCC(N)=O` [Ala4 (D-Orn→D-Ala), FA-sywaOGoWTINGG-CONH2] ({Octanoyl(7-Me)}-[dS][dY][dW][dA][Orn]G[dOrn]WTINGG-NH2), the “Minimum inhibitory concentration (MIC)” value turned out to be 32 µg/mL (≈ 20.3 µM).

For the compound `CC[C@H](C)[C@H](NC(=O)[C@@H](NC(=O)[C@H](Cc1c[nH]c2ccccc12)NC(=O)[C@@H](CCCN)NC(=O)CNC(=O)[C@H](C)NC(=O)[C@@H](CCCN)NC(=O)[C@@H](Cc1c[nH]c2ccccc12)NC(=O)[C@@H](Cc1ccc(O)cc1)NC(=O)[C@@H](CO)NC(=O)CCCCCC(C)C)[C@@H](C)O)C(=O)N[C@@H](CC(N)=O)C(=O)NCC(=O)NCC(N)=O` [Ala5 (Orn→Ala), FA-sywoAGoWTINGG-CONH2] ({Octanoyl(7-Me)}-[dS][dY][dW][dOrn]AG[dOrn]WTINGG-NH2), the “Minimum inhibitory concentration (MIC)” value worked out at 32 µg/mL (≈ 20.3 µM).

As to `CC[C@H](C)[C@H](NC(=O)[C@@H](NC(=O)[C@H](Cc1c[nH]c2ccccc12)NC(=O)[C@@H](CCCN)NC(=O)[C@H](C)NC(=O)[C@H](CCCN)NC(=O)[C@@H](CCCN)NC(=O)[C@@H](Cc1c[nH]c2ccccc12)NC(=O)[C@@H](Cc1ccc(O)cc1)NC(=O)[C@@H](CO)NC(=O)CCCCCC(C)C)[C@@H](C)O)C(=O)N[C@@H](CC(N)=O)C(=O)NCC(=O)NCC(N)=O` [Ala6 (Gly→Ala), FA-sywoOAoWTINGG-CONH2] ({Octanoyl(7-Me)}-[dS][dY][dW][dOrn][Orn]A[dOrn]WTINGG-NH2), the “Minimum inhibitory concentration (MIC)” value was in the range of 4 to 8 µg/mL.

For the compound `CC[C@H](C)[C@H](NC(=O)[C@@H](NC(=O)[C@H](Cc1c[nH]c2ccccc12)NC(=O)[C@@H](C)NC(=O)CNC(=O)[C@H](CCCN)NC(=O)[C@@H](CCCN)NC(=O)[C@@H](Cc1c[nH]c2ccccc12)NC(=O)[C@@H](Cc1ccc(O)cc1)NC(=O)[C@@H](CO)NC(=O)CCCCCC(C)C)[C@@H](C)O)C(=O)N[C@@H](CC(N)=O)C(=O)NCC(=O)NCC(N)=O` [Ala7 (D-Orn→D-Ala), FA-sywoOGaWTINGG-CONH2] ({Octanoyl(7-Me)}-[dS][dY][dW][dOrn][Orn]G[dA]WTINGG-NH2), the “Minimum inhibitory concentration (MIC)” value was greater than 64 µg/mL.

Regarding `CC[C@H](C)[C@H](NC(=O)[C@@H](NC(=O)[C@H](C)NC(=O)[C@@H](CCCN)NC(=O)CNC(=O)[C@H](CCCN)NC(=O)[C@@H](CCCN)NC(=O)[C@@H](Cc1c[nH]c2ccccc12)NC(=O)[C@@H](Cc1ccc(O)cc1)NC(=O)[C@@H](CO)NC(=O)CCCCCC(C)C)[C@@H](C)O)C(=O)N[C@@H](CC(N)=O)C(=O)NCC(=O)NCC(N)=O` [Ala8 (Trp→Ala), FA-sywoOGoATINGG-CONH2] ({Octanoyl(7-Me)}-[dS][dY][dW][dOrn][Orn]G[dOrn]ATINGG-NH2), the “Minimum inhibitory concentration (MIC)” value is greater than 64 µg/mL.

With `CC[C@H](C)[C@H](NC(=O)[C@H](C)NC(=O)[C@H](Cc1c[nH]c2ccccc12)NC(=O)[C@@H](CCCN)NC(=O)CNC(=O)[C@H](CCCN)NC(=O)[C@@H](CCCN)NC(=O)[C@@H](Cc1c[nH]c2ccccc12)NC(=O)[C@@H](Cc1ccc(O)cc1)NC(=O)[C@@H](CO)NC(=O)CCCCCC(C)C)C(=O)N[C@@H](CC(N)=O)C(=O)NCC(=O)NCC(N)=O` [Ala9 (Thr→Ala), FA-sywoOGoWAINGG-CONH2] ({Octanoyl(7-Me)}-[dS][dY][dW][dOrn][Orn]G[dOrn]WAINGG-NH2), the “Minimum inhibitory concentration (MIC)” value came out at 2 µg/mL (≈ 1.26 µM).

Turning to `CC(C)CCCCCC(=O)N[C@H](CO)C(=O)N[C@H](Cc1ccc(O)cc1)C(=O)N[C@H](Cc1c[nH]c2ccccc12)C(=O)N[C@H](CCCN)C(=O)N[C@@H](CCCN)C(=O)NCC(=O)N[C@H](CCCN)C(=O)N[C@@H](Cc1c[nH]c2ccccc12)C(=O)N[C@H](C(=O)N[C@@H](C)C(=O)N[C@@H](CC(N)=O)C(=O)NCC(=O)NCC(N)=O)[C@@H](C)O` [Ala10 (Ile→Ala), FA-sywoOGoWTANGG-CONH2] ({Octanoyl(7-Me)}-[dS][dY][dW][dOrn][Orn]G[dOrn]WTANGG-NH2), the “Minimum inhibitory concentration (MIC)” value was 16 µg/mL (≈ 10.1 µM).

With `CC[C@H](C)[C@H](NC(=O)[C@@H](NC(=O)[C@H](Cc1c[nH]c2ccccc12)NC(=O)[C@@H](CCCN)NC(=O)CNC(=O)[C@H](CCCN)NC(=O)[C@@H](CCCN)NC(=O)[C@@H](Cc1c[nH]c2ccccc12)NC(=O)[C@@H](Cc1ccc(O)cc1)NC(=O)[C@@H](CO)NC(=O)CCCCCC(C)C)[C@@H](C)O)C(=O)N[C@@H](C)C(=O)NCC(=O)NCC(N)=O` [Ala11 (Asn→Ala), FA-sywoOGoWTIAGG-CONH2] ({Octanoyl(7-Me)}-[dS][dY][dW][dOrn][Orn]G[dOrn]WTIAGG-NH2), the “Minimum inhibitory concentration (MIC)” value was 16 µg/mL (≈ 10.1 µM).

As to `CC[C@H](C)[C@H](NC(=O)[C@@H](NC(=O)[C@H](Cc1c[nH]c2ccccc12)NC(=O)[C@@H](CCCN)NC(=O)CNC(=O)[C@H](CCCN)NC(=O)[C@@H](CCCN)NC(=O)[C@@H](Cc1c[nH]c2ccccc12)NC(=O)[C@@H](Cc1ccc(O)cc1)NC(=O)[C@@H](CO)NC(=O)CCCCCC(C)C)[C@@H](C)O)C(=O)N[C@@H](CC(N)=O)C(=O)N[C@@H](C)C(=O)NCC(N)=O` [Ala12 (Gly→Ala), FA-sywoOGoWTINAG-CONH2] ({Octanoyl(7-Me)}-[dS][dY][dW][dOrn][Orn]G[dOrn]WTINAG-NH2), the “Minimum inhibitory concentration (MIC)” value turned out to be 4 µg/mL (≈ 2.45 µM).

With `CC[C@H](C)[C@H](NC(=O)[C@@H](NC(=O)[C@H](Cc1c[nH]c2ccccc12)NC(=O)[C@@H](CCCN)NC(=O)CNC(=O)[C@H](CCCN)NC(=O)[C@@H](CCCN)NC(=O)[C@@H](Cc1c[nH]c2ccccc12)NC(=O)[C@@H](Cc1ccc(O)cc1)NC(=O)[C@@H](CO)NC(=O)CCCCCC(C)C)[C@@H](C)O)C(=O)N[C@@H](CC(N)=O)C(=O)NCC(=O)N[C@@H](C)C(N)=O` [Ala13 (Gly→Ala), FA-sywoOGoWTINGA-CONH2] ({Octanoyl(7-Me)}-[dS][dY][dW][dOrn][Orn]G[dOrn]WTINGA-NH2), the “Minimum inhibitory concentration (MIC)” value was found to be 4 µg/mL (≈ 2.45 µM).

Consider `CC[C@H](C)[C@H](NC(=O)[C@H](CC(N)=O)NC(=O)[C@H](Cc1c[nH]c2ccccc12)NC(=O)[C@@H](CCCN)NC(=O)CNC(=O)[C@H](CCCN)NC(=O)[C@@H](CCCN)NC(=O)[C@@H](Cc1c[nH]c2ccccc12)NC(=O)[C@@H](Cc1ccc(O)cc1)NC(=O)[C@@H](CO)NC(=O)CCCCCC(C)C)C(=O)N[C@@H](CC(N)=O)C(=O)NCC(=O)NCC(N)=O` [Asn9-CONH2] ({Octanoyl(7-Me)}-[dS][dY][dW][dOrn][Orn]G[dOrn]WNINGG-NH2), for which the “Minimum inhibitory concentration (MIC)” value worked out at 4 µg/mL (≈ 2.45 µM).
